Assay results reported in patent publication US10829458B2 (Araxes Pharma LLC, priority 2015, dated 2020).

Molecular target: T1, KRAS G12C 1-169, his-tagged protein, GDP-loaded (Homo sapiens, UniProt P01116, G12C)
T1 construct: KRAS G12C 1-169, his-tagged protein, GDP-loaded
Assay: Biochemical assay: covalent modification of KRAS G12C measured by mass spectrometry (RapidFire/TOF or Q-Exactive)
Conditions: covalent binding to KRAS G12C
Description: Test compounds were prepared as 10 mM stock solutions in DMSO (Fisher cat #BP-231-100). KRAS G12C 1-169, his-tagged protein, GDP-loaded was diluted to 2 μm in buffer (20 mM Hepes, 150 mM NaCl, 1 mM MgCl2). Compounds were tested for activity as follows:
Compounds were diluted to 50× final test concentration in DMSO in 96-well storage plates. Compound stock solutions were vortexed before use and observed carefully for any sign of precipitation. Dilutions were as follow: • For 100 μM final compound concentration, compounds were diluted to 5000 μM (5 μl 10 mM compound stock+5 μl DMSO and mixed well by pipetting. • For 30 μM final compound concentration, compounds were diluted to 1500 μM (3 μl 10 mM compound stock+17p DMSO) and mixed well by pipetting. • For 10 μM final compound concentration, compounds were diluted to 500 μM (2 μl 10 mM compound stock+38p DMSO) and mixed well by pipetting. 49p of the stock protein solution was added to each well of a 96-well PCR plate (Fisher cat #1423027). 1 μl of the diluted 50× compounds were added to appropriate wells in the PCR plate using 12-channel pipettor. Reactions were mixed carefully and thoroughly by pipetting up/down with a 200·1 multi-channel pipettor. The plate was sealed well with aluminum plate seal, and stored in drawer at room temperature for 30 min, 2 hour or 24 hrs. 5·1 of 2% formic acid (Fisher cat #A117) in DI H2O was then added to each well followed by mixing with a pipette. The plate was then resealed with aluminum seal and stored on dry ice until analyzed as described below.
The above described assays were analyzed by mass spectrometry according to one of the following two procedures:
The MS instrument is set to positive polarity, 2 GHz resolution, and low mass (1700) mode and allowed to equilibrate for 30 minutes. The instrument is then calibrated, switched to acquisition mode and the appropriate method loaded.
After another 30 minute equilibration time, a blank batch (i.e., buffer) is run to ensure equipment is operating properly. The samples are thawed at 37° C. for 10 minutes, briefly centrifuged, and transfer to the bench top. Wells A1 and H12 are spiked with 1 uL 500 uM internal standard peptide, and the plates centrifuged at 2000×g for 5 minutes. The method is then run and masses of each individual well recorded.
The masses (for which integration data is desired) for each well are pasted into the platemap and exported from the analysis. Masses for the internal standards are exported as well. The data at 50 ppm is extracted for the +19 charge state, and identity of well A1 is assigned using the internal standard spike and integrated. Peak data is exported as a TOF list and the above steps are repeated individually, for the +20, 21, 22, 23, 24, and 25 charge states.
The masses and peak intensities of KRAS G12C protein species were measured using a Dionex RSLCnano system (Thermo Scientific) connected to a Q Exactive Plus mass spectrometer (Thermo Scientific).
[…] of sample was each loaded onto a Aeris™ 3.6 μm WIDEPORE C4 200 Å, LC Column 50×2.1 mm column maintained at 40° C. at a flow rate of 600 μl min^−1 with […] (0.1% formic acid in acetonitrile). The liquid chromatography conditions were 20% solvent B for 1 min, 20% to 60% solvent B for 1.5 min, 60% to 90% solvent for 0.5 min, 90% solvent B for 0.2 min, 90% to 20% solvent B for 0.2 min, and then equilibrated for 1.6 min before the following sample injection. The flow rate was maintained at 600 μl min^−1 throughout the sample analysis.
The mass spectrometer was operated in profile mode at a resolution of 17500, 5 microscans, using 50 msec max injection time and an AGC target of 1e6, and a full mass range from 800-1850 m/z was recorded. The HCD trapping gas was optimized for maximum sensitivity for intact proteins. […]

Structure (SMILES)	Binding % (compounds of structure (I))	also measured
C=CC(=O)N1CCN(c2nc(NCCF)nc3c(F)c(-c4cc(O)cc5ccccc45)c(Cl)cc23)CC1 [Example I-61, 1-(4-(6-chloro-8-fluoro-2-(2-fluoroethyl-amino)-7-(3-hydroxy-naphthalen-1-yl)quinazolin-4-yl)piperazin-1-yl)prop-2-en-1-one]	+++ (+++ indicates binding activity greater than 90%)	–
C=CC(=O)N1CCN(c2nc(NC3CCS(=O)(=O)CC3)nc3c(F)c(-c4c(O)cccc4F)c(Cl)cc23)CC1 [Example I-66, 1-(4-(6-chloro-8-fluoro-7-(2-fluoro-6-hydroxyphenyl)-2-(tetrahydro-2H-dioxothio-pyran-4-ylamino)quinazolin-4-yl)piperazin-1-yl) prop-2-en-1-one]	+++ (+++ indicates binding activity greater than 90%)	–
C=CC(=O)N1CCN(c2nc(OCCN3CCOCC3)nc3c(F)c(-c4c(O)ccc(F)c4F)c(Cl)cc23)CC1 [Example I-91, 1-(4-(6-chloro-7-(2,3-difluoro-6-hydroxyphenyl)-8-fluoro-2-(2-morpholino-ethoxy)quinazolin-4-yl)piperazin-1-yl)prop-2-en-1-one]	+++ (+++ indicates binding activity greater than 90%)	–
C=CC(=O)N1CCN(c2nc(OCCP(C)(C)=O)nc3c(F)c(-c4c(O)cccc4F)c(Cl)cc23)CC1 [Example I-206, 1-(4-(6-chloro-2-(2-(dimethyl-phosphoryl)ethoxy)-8-fluoro-7-(2-fluoro-6-hydroxyphenyl)quinazolin-4-yl)piperazin-1-yl) prop-2-en-1-one]	+++ (+++ indicates binding activity greater than 90%)	–
C=CC(=O)N1[C@H](C)CN(c2ncnc3c(F)c(-c4c(C)ccc5[nH]ncc45)c(Cl)cc23)C[C@@H]1C [III-26, 1-((2S,6R)-4-(6-chloro-8-fluoro-7-(5-methyl-1H-indazol-4-yl)quinazolin-4-yl)-2,6-dimethyl-piperazin-1-yl)prop-2-en-1-one]	–	Binding % (compounds of structure (III)): ++ (++ indicates activity from 50% to 90%)
C=CC(=O)N1CCN(c2nc(N3CC(N4CCOCC4)C3)nc3c(F)c(-c4c(O)cccc4F)c(Cl)cc23)CC1 [Example I-24, 1-(4-(6-chloro-8-fluoro-7-(2-fluoro-6-hydroxyphenyl)-2-(3-morpholino-azetidin-1-yl)quinazolin-4-yl)piperazin-1-yl)prop-2-en-1-one]	+++ (+++ indicates binding activity greater than 90%)	–
C=CC(=O)N1CCN(c2nc(N3CC(N(C)C)C3)nc3c(F)c(-c4c(O)cccc4F)c(Cl)cc23)CC1 (atropisomer, axis not shown) [Example I-117, (R)-1-(4-(6-chloro-2-(3-(dimethylamino)azetidin-1-yl)-8-fluoro-7-(2-fluoro-6-hydroxyphenyl)quinazolin-4-yl)piperazin-1-yl) prop-2-en-1-one]	+ (+ indicates binding activity up to 50%)	–
C=CC(=O)N1CCN(c2nc(OCCN3CCOCC3)nc3c(F)c(-c4cc(O)cc5ccccc45)c(Cl)cc23)CC1 [Example I-14, 1-(4-(6-chloro-8-fluoro-7-(3-hydroxy-naphthalen-1-yl)-2-(2-morpholino-ethoxy)quinazolin-4-yl)piperazin-1-yl)prop-2-en-1-one]	+++ (+++ indicates binding activity greater than 90%)	–
C=CC(=O)N1CCN(c2nc(OCCc3ncccc3F)nc3c(F)c(-c4c(O)cccc4F)c(Cl)cc23)CC1 [Example I-114, 1-(4-(6-chloro-8-fluoro-7-(2-fluoro-6-hydroxyphenyl)-2-(2-(3-fluoro-pyridin-2-yl)ethoxy)quinazolin-4-yl)piperazin-1-yl) prop-2-en-1-one]	+++ (+++ indicates binding activity greater than 90%)	–
C=CC(=O)N1[C@H](C)CN(c2ncnc3c(F)c(-c4c(O)cccc4F)c(Cl)cc23)C[C@@H]1C (atropisomer, axis not shown) [III-6]	–	Binding % (compounds of structure (III)): +++ (+++ indicates binding activity greater than 90%)
C=CC(=O)N1CCN(c2nc(N3CC(N(C)C)C3)nc3c(F)c(-c4cc(O)cc5ccccc45)c(Cl)cc23)CC1 [Example I-106, 1-(4-(6-chloro-2-(3-(dimethyl-amino)azetidin-1-yl)-8-fluoro-7-(3-hydroxy-naphthalen-1-yl)quinazolin-4-yl)piperazin-1-yl) prop-2-en-1-one]	+++ (+++ indicates binding activity greater than 90%)	–
C=CC(=O)N1CC2(CCN(c3ncnc4c(F)c(-c5c(O)cccc5F)c(Cl)cc34)C2)C1 [II-4, 1-(6-(6-chloro-8-fluoro-7-(2-fluoro-6-hydroxyphenyl)quinazolin-4-yl)-2,6-diazaspiro[3.4]octan-2-yl)prop-2-en-1-one]	–	Binding % (compounds of structure (II)): + (+ indicates binding activity up to 50%)
C=CC(=O)N1CCN(c2nc(C#N)nc3c(F)c(-c4c(O)cccc4F)c(Cl)cc23)CC1 [Example I-68, 4-(4-acryloyl-piperazin-1-yl)-6-chloro-8-fluoro-7-(2-fluoro-6-hydroxyphenyl) quinazoline-2-carbonitrile]	+++ (+++ indicates binding activity greater than 90%)	–
C=CC(=O)N1CCN(c2nc(OCCN(CC)CC)nc3c(F)c(-c4c(C)ccc5[nH]ncc45)c(Cl)cc23)CC1 [Example I-130, 1-(4-(6-chloro-2-(2-(diethyl-amino)ethoxy)-8-fluoro-7-(5-methyl-1H-indazol-4-yl)quinazolin-4-yl)piperazin-1-yl) prop-2-en-1-one]	+++ (+++ indicates binding activity greater than 90%)	–
C=CC(=O)N1CCN(c2nc(NCCN3CC(F)(F)C3)nc3c(F)c(-c4c(O)cccc4F)c(Cl)cc23)CC1 [Example I-143, 1-(4-(6-chloro-2-(2-(3,3-difluoro-azetidin-1-yl)ethylamino)-8-fluoro-7-(2-fluoro-6-hydroxyphenyl)quinazolin-4-yl)piperazin-1-yl) prop-2-en-1-one]	+++ (+++ indicates binding activity greater than 90%)	–
C=CC(=O)N1CCN(c2nc(OC3CCN(CC(F)(F)F)C3)nc3c(F)c(-c4c(O)cccc4F)c(Cl)cc23)CC1 (stereo not shown) [Example I-26, 1-(4-(6-chloro-8-fluoro-7-(2-fluoro-6-hydroxyphenyl)-2-(1-(2,2,2-trifluoroethyl)pyrrolidin-3-yloxy)quinazolin-4-yl)piperazin-1-yl)prop-2-en-1-one]	+++ (+++ indicates binding activity greater than 90%)	–
C=CC(=O)N1CCN(c2nc(NC3CCN(C4CC4)CC3)nc3c(F)c(-c4c(O)cccc4F)c(Cl)cc23)CC1 (atropisomer, axis not shown) [Example I-78, (S)-1-(4-(6-chloro-2-(1-cyclopropyl-piperidin-4-ylamino)-8-fluoro-7-(2-fluoro-6-hydroxyphenyl)quinazolin-4-yl)piperazin-1-yl)prop-2-en-1-one]	+++ (+++ indicates binding activity greater than 90%)	–
C=CC(=O)Nc1ncc(-c2ncnc3c(F)c(-c4c(O)cccc4F)c(Cl)cc23)s1 [II-13, N-(5-(6-chloro-8-fluoro-7-(2-fluoro-6-hydroxyphenyl)quinazolin-4-yl)thiazol-2-yl)acrylamide]	–	Binding % (compounds of structure (II)): ++ (++ indicates binding activity greater than 50% and less than 75%)
CN(C)C/C=C/C(=O)N1CCN(c2nc(OCCN3CCOCC3)nc3c(F)c(-c4c(O)cccc4F)c(Cl)cc23)CC1 [Example I-74, (E)-1-(4-(6-chloro-8-fluoro-7-(2-fluoro-6-hydroxyphenyl)-2-(2-morpholino-ethoxy)quinazolin-4-yl)piperazin-1-yl)-4-(dimethyl-amino)but-2-en-1-one]	+++ (+++ indicates binding activity greater than 90%)	–
